Data from US10513567B2, “Polycations and methods of making and using thereof” (Georgia Tech Research Corporation, priority 2016, dated 2019).

Test: Fragmentation (hydrolysis) of WCL pyridine adducts and oligocations in deuterated aqueous buffer followed by 1H NMR
Assay type: physicochemical
Protocol: The fragmentation of cationic adducts was followed by ^1H NMR in deuterated buffer, with the relative concentration of each species established by integration of unique resonances. Each adduct in Table 3 and Table 4 was thus examined in three independent runs.
Each adduct dinitrate was isolated, characterized, and heated at 50° C. in deuterated buffer; following the disappearance of the adduct by NMR, first-order rate constants of fragmentation were obtained.
Using the conditions of Table 4, three additional oligocations were prepared from the bis(pyridine) linkers as shown in Table 5. […] The stabilities of these compounds toward fragmentation under aqueous conditions were assessed by NMR in deuterated buffer, following the disappearance of the thiabicyclononane C—H resonance adjacent to the pyridine group (position g in FIG. 14) and the appearance of the corresponding resonance (4.3 ppm) for the diol product 4 (FIG. 6).

| Structure (SMILES) | kfrag, pseudo first order fragmentation (50° C., deuterated buffer) | kfrag, pseudo first order fragmentation (37° C.) | krel (37° C., relative to 5i) | krel (50° C., relative to 5e) |
| --- | --- | --- | --- | --- |
| COC(=O)c1ccc[n+](C2CCC3SC2CCC3[n+]2cccc(C(=O)OC)c2)c1.O=[N+]([O-])[O-].O=[N+]([O-])[O-] (centres unmarked) [Compound 5b, 2,6-di-3-methoxycarbonylpyridinium-9-thiabicyclo[3.3.1]nonane dinitrate] | (3.03 ± 0.38) × 10^−2 h^−1 | – | – | – |
| COC(=O)c1cc[n+](C2CCC3SC2CCC3[n+]2ccc(C(=O)OC)cc2)cc1.O=[N+]([O-])[O-].O=[N+]([O-])[O-] (centres unmarked) [Compound 5c, 2,6-di-4-methoxycarbonylpyridinium-9-thiabicyclo[3.3.1]nonane dinitrate] | (3.66 ± 0.33) × 10^−2 h^−1 | (0.16 ± 0.01) × 10^−2 h^−1 | 0.3 | – |
| N#Cc1ccc[n+](C2CCC3SC2CCC3[n+]2cccc(C#N)c2)c1.O=[N+]([O-])[O-].O=[N+]([O-])[O-] (centres unmarked) [Compound 5h, 2,6-di-3-cyanopyridinium-9-thiabicyclo[3.3.1]nonane dinitrate] | (10.8 ± 0.98) × 10^−2 h^−1 | (1.14 ± 0.16) × 10^−2 h^−1 | 2.1 | – |
| FC(F)(F)c1ccc[n+](C2CCC3SC2CCC3[n+]2cccc(C(F)(F)F)c2)c1.O=[N+]([O-])[O-].O=[N+]([O-])[O-] (centres unmarked) [Compound 5g, 2,6-di-3-trifluoromethylpyridinium-9-thiabicyclo[3.3.1]nonane dinitrate] | (74.8 ± 5.4) × 10^−2 h^−1 | (5.87 ± 0.71) × 10^−2 h^−1 | 11 | – |
| NC(=O)c1ccc[n+](C2CCC3SC2CCC3[n+]2cccc(C(N)=O)c2)c1.O=[N+]([O-])[O-].O=[N+]([O-])[O-] (centres unmarked) [Compound 5d, 2,6-di-3-carbamylpyridinium-9-thiabicyclo[3.3.1]nonane dinitrate] | (3.18 ± 0.32) × 10^−2 h^−1 | – | – | – |
| COc1cc(Br)c[n+](C2CCC3SC2CCC3[n+]2cc(Br)cc(OC)c2)c1.O=[N+]([O-])[O-].O=[N+]([O-])[O-] (centres unmarked) [Compound 5i, 2,6-di-3-bromo-5-methoxylpyridinium-9-thiabicyclo[3.3.1]nonane dinitrate] | (7.51 ± 0.53) × 10^−2 h^−1 | (0.55 ± 0.04) × 10^−2 h^−1 | 1 | – |
| NC(=O)c1cc[n+](C2CCC3SC2CCC3[n+]2ccc(C(N)=O)cc2)cc1.O=[N+]([O-])[O-].O=[N+]([O-])[O-] (centres unmarked) [Compound 5e, 2,6-di-4-carbamylpyridinium-9-thiabicyclo[3.3.1]nonane dinitrate] | (1.62 ± 0.10) × 10^−2 h^−1 | – | – | 1.00 |
| COC(=O)c1cc(C(=O)OC)c[n+](C2CCC3SC2CCC3[n+]2cc(C(=O)OC)cc(C(=O)OC)c2)c1.O=S(=O)([O-])C(F)(F)F.O=S(=O)([O-])C(F)(F)F (centres unmarked) [Compound 5k, 2,6-di-3,5-dimethoxycarbonylpyridinium-9-thiabicyclo[3.3.1]nonane ditriflate] | – | (11.9 ± 1.13) × 10^−2 h^−1 | 22 | – |
| COC(=O)c1cc(Br)c[n+](C2CCC3SC2CCC3[n+]2cc(Br)cc(C(=O)OC)c2)c1.O=S(=O)([O-])C(F)(F)F.O=S(=O)([O-])C(F)(F)F (centres unmarked) [Compound 5l, 2,6-di-3-bromo-5-methoxycarbonylpyridinium-9-thiabicyclo[3.3.1]nonane ditriflate] | – | (10.9 ± 1.81) × 10^−2 h^−1 | 20 | – |
| NC(=O)c1cc(Br)c[n+](C2CCC3SC2CCC3[n+]2cc(Br)cc(C(N)=O)c2)c1.O=S(=O)([O-])C(F)(F)F.O=S(=O)([O-])C(F)(F)F (centres unmarked) [Compound 5j, 2,6-di-3-bromo-5-carbamylpyridinium-9-thiabicyclo[3.3.1]nonane ditriflate] | – | (9.34 ± 0.87) × 10^−2 h^−1 | 17 | – |
| Brc1ccc[n+](C2CCC3SC2CCC3[n+]2cccc(Br)c2)c1.O=[N+]([O-])[O-].O=[N+]([O-])[O-] (centres unmarked) [Compound 5f, 2,6-di-3-bromopyridinium-9-thiabicyclo[3.3.1]nonane dinitrate] | (6.59 ± 0.58) × 10^−2 h^−1 | – | – | – |
